Test: gradient 5% acetonitrile 3 min, to 50% in 2 min, to 85% in 15 min, held 3 min, 100 µL/min
Details: column: Zorbax Extend-C18 2.1 x 50 mm; eluents: water / acetonitrile, 0.1% formic acid
In short: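 Retention time was recorded from adduct peaks, which were picked computationally and each inspected manually. Pure standards ran in mixtures of ~100 molecules on HPLC coupled to a quadrupole time-of-flight mass spectrometer, in positive and negative ionization mode, through a Zorbax Extend-C18 column (2.1 × 50 mm, 1.8 μm) at 100 μL/min. Eluents were water and acetonitrile, each with 0.1% formic acid.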

| RP-LC retention time | SMILES |
| --- | --- |
| 942 s | CCOC(=O)c1c(S(=O)(=O)N2CCC(C(=O)Nc3cc(C)cc(C)c3)CC2)c(C)n(C)c1C |
| 716 s | COc1ccc(NC(=O)NC2CCN(c3ccc(F)cc3)C2=O)c(OC)c1 (stereo unspecified) |
| 822 s | CC(=O)N1c2ccc(S(=O)(=O)N3CCCCC3)cc2CC1C(=O)NCCC(C)C (stereo unspecified) |
| 684 s | COc1cccc(OC)c1OCC(O)CN1CCN(c2ccccc2F)CC1 (stereo unspecified) |
| 722 s | CCOc1ccc(-n2nnnc2CNC(=O)Nc2cccs2)cc1 |
| 924 s | COc1ccc(-c2noc(CC(=O)NCc3ccccc3)c2-c2ccc(OC)cc2)cc1 |
| 728 s | Cn1c(=O)c2ccn(CC(=O)N3CCC(C(N)=O)(N4CCCCC4)CC3)c2n(C)c1=O |
| 761 s | Cc1nnsc1C(=O)N1CCC(CNC(=O)c2cc(-c3ccccc3)on2)CC1 |
| 734 s | O=C(Nc1cccc(-c2cn3cccnc3n2)c1)c1ccc(Br)cc1 |
| 1050 s | COc1cccc(CC(=O)N2CCc3nc(-c4ccc(Cl)cc4)ncc3C2)c1 |
| 781 s | O=C(NCc1ccccc1F)C1CCCN(c2nnc3ccc(C(F)(F)F)cn23)C1 (stereo unspecified) |
| 841 s | COc1ccc(OC)c(S(=O)(=O)N2CCCC(C(=O)NCc3ccccc3)C2)c1 (stereo unspecified) |
| 1030 s | Cc1ccc(N2CN(CC(=O)N3CCCc4ccccc43)S(=O)(=O)c3cccnc32)cc1 |
| 844 s | Cc1ccc(NC(=O)C2CCCN2S(=O)(=O)c2cc3c(cc2Cl)NC(=O)CO3)cc1F (stereo unspecified) |
| 1210 s | O=C1Oc2ccccc2C(=O)/C1=C1/C=C(c2ccccc2)SS1 |
| 843 s | CC(C)OCCCNC(=O)c1nnc(-c2ccc(S(=O)(=O)N3CCCC3)cc2)o1 |
| 740 s | COc1ccc(Cl)cc1NC(=O)C1CC(=O)N(c2cccc(NC(C)=O)c2)C1 (stereo unspecified) |
| 645 s | Cc1ccc2cc(CCC(=O)N(C)Cc3cn(C)nc3C)c(=O)[nH]c2c1 |
| 600 s | CCN(CC)CCSc1ccc(C(=O)N2CCN(c3ncccn3)CC2)cn1 |
| 759 s | CSc1ccc(Cl)c(C(=O)Nc2cccn3c(C)nnc23)c1 |
| 885 s | CCn1cc(C(=O)NC(C)c2ccc(OC)c(OC)c2)c(=O)c2ccc(C)nc21 (stereo unspecified) |
| 614 s | Cc1ccc(S(=O)(=O)Nc2ccc3nc(N4CCN(CCC#N)CC4)cc(C(=O)O)c3c2)cc1C |

| RP-LC retention time | SMILES |
| --- | --- |
| 711 s | COc1ccccc1CNC(=O)C1CC(=O)N(c2n[nH]c3cccc(F)c23)C1 (stereo unspecified) |
| 1060 s | CC(C)(C)OC(=O)N1CCN(c2ncc(S(=O)(=O)c3ccc(Cl)cc3)c(N)n2)CC1 |
| 818 s | CNC(=O)CN(C)C(=O)c1cc2c(s1)N(CC1CC1)CCCC2 |
| 594 s | O=C1NCCN2CC3(CCN(S(=O)(=O)Cc4ccccc4)CC3)CC12 (stereo unspecified) |
| 885 s | Cn1c(=O)c2cc(C(=O)Nc3ccccc3)cnc2n(-c2ccc(F)cc2)c1=O |
| 984 s | COc1ccc(-c2noc(C3CC(=O)N(c4ccc(C)c(F)c4)C3)n2)cc1OC (stereo unspecified) |
| 655 s | Cc1ccc2cc(CCC(=O)NCc3ccc(N4CCOCC4)cc3)c(=O)[nH]c2c1 |
| 1070 s | O=c1c2sccc2n(Cc2nc(-c3ccc(Br)cc3)no2)c(=O)n1-c1cccc(F)c1 |
| 705 s | O=C(Nc1cccc(N2CCCCC2=O)c1)c1ccc(F)c(F)c1 |
| 855 s | CCOc1ccc(NC(=O)NC(C)C(=O)N2CCc3ccccc32)cc1 (stereo unspecified) |
| 814 s | COc1ccc(-n2nc3c(N4CCCC(C(=O)NCCC5=CCCCC5)C4)nnc(C)c3c2C)cc1 (stereo unspecified) |
| 1390 s | CCCCn1c(SCc2nc(-c3ccc(OCC)cc3)no2)nc2cc3c(cc2c1=O)OCO3 |
| 987 s | COc1ccc(-c2nc3cccc(C)n3c2Nc2ccc3c(c2)OCCO3)cc1 |
| 748 s | CCN1C(=O)c2cccnc2Sc2cc(C(=O)NCC(C)C)ccc21 |
| 666 s | O=C(c1ccc(=O)[nH]c1)N1CC(c2nc(-c3ccccn3)no2)C1 |
| 790 s | CCOc1ccccc1N1CCN(C(=O)c2csc(C(=O)NC3CC3)n2)CC1 |
| 749 s | N#Cc1ccc(C(=O)Nc2nnc(CSc3ccccc3)o2)cc1 |
| 709 s | CCN(C(=O)Cn1nc2n(c1=O)CCCCC2)c1ccccc1 |
| 608 s | CCCOc1cc(N2CCN(C(=O)c3ccc4c(c3)OCO4)CC2)nc(C)n1 |
| 765 s | Cc1ccc(CNC(=O)C2CCN(S(=O)(=O)c3cc(C(=O)N4CCOCC4)cs3)CC2)cc1 |
| 951 s | CC(C)S(=O)(=O)c1cc2c(cc1NC(=O)c1ccc(Br)cc1)n(C)c(=O)n2C |
| 795 s | COc1cc(Cl)ccc1C(=O)NC1CCN(c2cc(-c3cccs3)[nH]n2)C1 (stereo unspecified) |

| RP-LC retention time | SMILES |
| --- | --- |
| 999 s | COCCN(CC(=O)N1CCc2sccc2C1COc1cccc(F)c1)C(=O)C1CCCC1 (stereo unspecified) |
| 745 s | CCC(C(=O)Nc1c(-c2ccc(F)cc2)nc2cc(C)ccn12)c1ccccc1 (stereo unspecified) |
| 954 s | CCOCCCNC(=O)N1CCCCCC1c1ccc(C)cc1 (stereo unspecified) |
| 909 s | CCn1c(=O)c2ccccc2n(Cc2nc(-c3ccccc3OC)no2)c1=O |
| 1050 s | COc1ccc(N2CC(c3noc(-c4cccc(OC(F)(F)F)c4)n3)CC2=O)cc1 (stereo unspecified) |
| 708 s | Fc1ccc(Cc2nc(-c3ccnc(N4CCCC4)c3)no2)cc1 |
| 570 s | CS(=O)(=O)NCC1CCC(C(=O)NCCCn2ccnc2)CC1 (stereo unspecified) |
| 983 s | CCc1ccc(CNC(=O)C2CCCN(c3nn4c(=O)c5c(nc4s3)CCCC5)C2)cc1 (stereo unspecified) |
| 745 s | Cc1cc(S(=O)(=O)NCCc2cn(C)c3ncccc23)ccc1F |
| 909 s | Cc1ccc2ncn(C3CCN(S(=O)(=O)c4cccc(F)c4)CC3)c(=O)c2c1 |
| 722 s | CCOc1ccccc1NC(=O)N1CC(n2cnnc2-c2ccccc2)C1 |
| 1110 s | COc1ccc(-c2noc(-c3nc(-c4ccccc4F)no3)n2)cc1OC |
| 1120 s | COc1ccc(-c2ccc(=O)n(Cc3nc(-c4ccc(OC(C)C)cc4)no3)n2)cc1 |
| 1240 s | Cc1ccc(Cl)cc1N1CCN(c2ccc3cc(S(=O)(=O)N4CCCC4)ccc3n2)CC1 |
| 592 s | O=C(c1ccsc1)N1CCC[C@H]1c1nc(C2CCOCC2)n[nH]1 |
| 767 s | N#Cc1ccc(C(=O)N2CCN(c3cc(-c4ccc(F)cc4)[nH]n3)CC2)cc1 |
| 719 s | CCC(=O)N1CCC(COc2ccc(C(=O)NC(C)C)cc2)CC1 |
| 660 s | Cc1cccc(C)c1NC(=O)N1CCC(c2cc(N)on2)CC1 |
| 909 s | Fc1ccccc1-c1nc2ccc(Cl)cn2c1Nc1ccc(Cl)cc1 |
| 825 s | Cc1ccc(-c2nc3ncccn3c2Nc2cc(C)ccc2C)cc1 |
| 599 s | COc1cc(C(=O)N2CCN(c3cc(N(C)C)nc(C)n3)CC2)cc(OC)c1OC |

| SMILES | RP-LC retention time |
| --- | --- |
| Brc1ccc2nc(N3CCNCC3)sc2c1 | 557 s |

Source: the METLIN SMRT retention time set (Domingo-Almenara et al. 2019)
